Patent US20260061191A1, “Using Alternating Electric Fields to Increase Cell Membrane Permeability” (The Board of Trustees of the Leland Stanford Junior …, priority 2018, published 2026)

What was measured:
[1] = tested on: U87-MG/eGFP-fLuc cells; assay: Ethidium D uptake under TTFields; type: cell-based, human; conditions: 200 kHz TTFields vs no TTFields, p<0.0001
Excerpt: Ethidium D permeates through both the plasma membrane and the nuclear membrane and intercalates into genomic DNA.

[2] = tested on: U87-MG cells on PCS-201 fibroblasts co-culture; assay: 5-ALA uptake (PpIX fluorescence), U87-MG GBM on PCS-201 fibroblast co-cultures; type: cell-based, human
[3] = tested on: U87-MG cells; assay: 5-ALA uptake (PpIX fluorescence), single U87-MG culture; type: cell-based, human
Experimental: Experiments were performed to determine the effects of TTFields on uptake of 5-ALA (as measured by PpIX accumulation and its resultant fluorescence) in glioblastoma cells. Because it is difficult to distinguish the margin between tumor and normal cells using the present 5-ALA bioassay, the measurement of PpIX fluorescence was used to address this issue. Investigations were run to determine whether permeation of 5-ALA through the cellular membrane and into the glioblastoma cells could be increased with TTFields exposure. U87-MG cells were exposed or unexposed to TTFields, each for durations of 6-24 h.
All monovariant statistical comparisons between no TTFields vs. TTFields samples done by Student's t-test for n=3 experiments per time point.

[4] = tested on: GBM39 cells; assay: Drug sensitivity with TTFields; type: cell-based, human; conditions: TTFields for 3 days vs control without TTFields
[5] = tested on: U87-MG/GFP-Luc cells; assay: Drug sensitivity / synergy with TTFields; type: cell-based, human
[6] = tested on: pcGBM2/GFP-Luc cells
[7] = tested on: glioblastoma patients; assay: Survival of glioblastoma patients treated with TTFields plus temozolomide; type: in vivo, human; conditions: TTFields plus temozolomide vs temozolomide alone, re-analysis of Ram et al.
Excerpt: The treatment of glioblastoma (GBM) using alternating electric fields is a novel, validated therapy that has become an additional modality (after surgery chemoradiation and chemotherapy) for anti-cancer treatments. Intermediate frequency alternating electric fields (100-500 kHz) have been studied in detail. […] In the context of treating tumors, alternating electric fields at these frequencies are often referred to as “tumor treating fields” or “TTFields.”
Recurrence of GBM is inevitable and the median time to first recurrence despite standard therapy is approximately 7 months. […] TTFields compliance (≥75% vs. <75%) was an independent predictor of overall survival in the retrospective analysis of the full EF-14 trial dataset and the duration of use of TTFields was also found to affect overall survival. […] Namely, a correlation between the length of TTFields exposure and the duration of its effect on cell membrane permeability after cessation of TTFields was observed. At lengths of TTFields exposure of 0.5-3 h, the duration in BLI augmentation (compared to no TTFields conditions) lasted about 5 min. However, at TTFields exposures of 12-25 h, this difference in BLI between TTFields and no TTFields conditions lasted for more than 20 min.

[8] = tested on: MDA-MB-435 cells, doxorubicin resistant; assay: Intracellular accumulation of doxorubicin under alternating electric field; conditions: 150 kHz, 1.62 V/cm, 23 hours, then 10 μM doxorubicin for one hour with field; vs no field
Experimental: (§1) In this experiment, both wild type and doxorubicin resistant variants of MDA-MB-435 cells were treated with an alternating electric field at 150 kHz with a field strength of 1.62 V/cm for 23 hours. After this 23 hour period, doxorubicin at a concentration of 10 μM was added and incubated for one hour, during which time the alternating electric fields was continued. The intracellular accumulation of doxorubicin was then measured.

[9] = tested on: MDA-MB-235 cells; assay: Drug sensitivity / synergy with TTFields; type: cell-based
[10] = tested on: MES-SA cells; assay: Intracellular accumulation of doxorubicin under 150 kHz alternating electric field; conditions: 1.62 V/cm RMS, 24 hours, 10 μM doxorubicin for the last hour
Experimental: In this experiment, MES-SA cells were treated with an alternating electric field at 150 kHz with a field strength of 1.62 V/cm RMS for 24 hours. After the first 23 hours, doxorubicin at a concentration of 10 μM was added and incubated for one hour during which time the alternating electric fields was continued (to complete the 24 hour period). The intracellular accumulation of doxorubicin was then measured.

[11] = tested on: MDA-MB-435 cells, wild type; assay: Intracellular accumulation of doxorubicin under alternating electric field; conditions: 150 kHz, 1.62 V/cm, 23 hours, then 10 μM doxorubicin for one hour with field; vs no field
Experimental: as §1

[12] = tested on: MDA-MB-435 human melanoma cell line cells; assay: Permeability of cell membranes to 7-AAD, flow cytometry; type: cell-based
Experimental: After this 15 minute period, alternating electric field application was terminated and the cells were incubated at room temperature for an additional 15 minutes.
After this 24 hour period, the alternating electric fields were turned off for 15 minutes, after which the 7-AAD was added. After waiting an additional 15 minutes, the percentage of cells with increased accumulation of the fluorescent 7-AAD was determined using flow cytometry.

[13] = tested on: U87-MG cells; assay: Timing of permeability to 7-AAD after alternating electric field, flow cytometry; type: cell-based, human; conditions: 300 kHz, 1.62 V/cm RMS, 24 hours; sample incubated with 7-AAD while subjected to the field (added 15 minutes prior to cessation)
Experimental: FIG. 7D depicts the results of an experiment to test how quickly the permeability drops back down after cessation of the alternating electric fields. More specifically, 7-Aminoactinomycin D (7-AAD) is a fluorescent chemical compound with a strong affinity for DNA. […] 7-AAD was introduced into samples at five different times: 15 minutes prior to the cessation of the alternating electric field; immediately after cessation of the alternating electric field […]. In each case, the cells were incubated with 7-AAD for 30 minutes after introduction of the 7-AAD, followed by flow cytometry analysis of the percentage of cells with increased accumulation of the fluorescent 7-AAD for each of the different timings.

[14] = tested on: GBM39/Luc cells; assay: Drug sensitivity / synergy with TTFields; type: cell-based, human
[15] = tested on: U87-MG/eGFP-fLuc cells; assay: Annexin-V-APC binding (early apoptosis), fluorescence microscopy; type: cell-based, human; conditions: 21 μM, TTFields-unexposed samples
Experimental: To test if the imposition of TTFields affects cell membrane properties, and thus membrane permeability, the effect of TTFields on the behavior of fluorescently tagged reagents that bind to the cellular membrane was determined. Initially, the impact of TTFields on the binding of Annexin-V-APC to the membrane of U87-MG/eGFP-fLuc cells was measured. Annexin-V-APC binding is a signature of early apoptosis which is characterized by ruffling of the membrane.

[16] = tested on: human glioblastoma cells; assay: Growth inhibition by TTFields in conjunction with Withaferin A; type: cell-based; conditions: TTFields treatment in conjunction with Withaferin A
Excerpt: In this figure, 5-ALA=5-aminolevulinic acid; Ethidium D=ethidium bromide; and FITC=fluorescein isothiocyanate.

[17] = biological target: T1, purified firefly luciferase (Photinus pyralis, UniProt P08659); assay: Activity of purified firefly luciferase exposed to TTFields; type: biochemical; conditions: 200 kHz TTFields, 60 minutes after initiation of TTFields
T1 construct: purchased Sigma Aldrich Inc (St. Louis, MO) SRE0045-2MG

[18] = tested on: human glioblastoma cells that have been modified to express luciferase
Experimental: U87-MG/eGFP-fLuc cells were seeded on Thermanox glass coverslips, allowed to settle and grow, and then subjected to either TTFields or no TTFields.
Bioluminescence imaging: For all bioluminescence work, we used genetically-modified GBM2, GBM39 and U87-MG whereby the glioblastoma cells were transfected with lentiviral vectors that expressed either firefly luciferase (fLuc for GBM39) or a fusion protein of GFP and firefly luciferase (GFP/fLuc for GBM2 and eGFP-fLuc for U87-MG) or a Renilla luciferase-Red Fluorescence protein fusion (RLuc-RL8 for KR158B).

[19] = TTFields for 3 days vs control without TTFields

T1 sequence (P08659 whole entry): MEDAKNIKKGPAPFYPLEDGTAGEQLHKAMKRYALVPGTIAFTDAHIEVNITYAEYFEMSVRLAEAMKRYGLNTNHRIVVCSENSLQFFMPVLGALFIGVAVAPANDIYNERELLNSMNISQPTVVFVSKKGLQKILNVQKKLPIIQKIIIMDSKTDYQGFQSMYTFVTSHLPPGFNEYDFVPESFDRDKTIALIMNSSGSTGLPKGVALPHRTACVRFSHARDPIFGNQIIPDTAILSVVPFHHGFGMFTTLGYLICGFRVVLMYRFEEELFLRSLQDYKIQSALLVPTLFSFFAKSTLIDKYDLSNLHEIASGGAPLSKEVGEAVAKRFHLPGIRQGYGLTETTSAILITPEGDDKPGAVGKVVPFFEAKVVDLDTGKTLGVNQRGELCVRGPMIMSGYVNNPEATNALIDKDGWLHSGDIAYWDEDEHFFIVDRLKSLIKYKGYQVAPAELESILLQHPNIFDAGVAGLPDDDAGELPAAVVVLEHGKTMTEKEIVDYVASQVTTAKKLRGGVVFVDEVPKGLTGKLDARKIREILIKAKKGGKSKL

CC[n+]1c(-c2ccccc2)c2cc(N)ccc2c2ccc(N)cc21 [ethidium D, ethidium bromide]
ethidium D uptake [1]: significantly increased

NCC(=O)CCC(=O)O [5-ALA, 5-aminolevulinic acid]
5-ALA uptake in the GBM cells compared to the fibroblast cells (ratio of PpIX fluorescence intensity) ([2]; TTFields exposure (by 24 h, p=0.043) vs no TTFields): significantly increased
rate of PpIX fluorescence intensity increase ([2]; TTFields-exposed vs unexposed co-cultures, 2, 6 and 24 h, p<0.001): significantly augmented
uptake of 5-ALA (PpIX fluorescence) ([3]; 6 h of TTFields exposure vs no TTFields, p=0.047): significantly increased uptake
uptake of 5-ALA (PpIX fluorescence) ([3]; 24 h of TTFields exposure vs no TTFields, p=0.011): increase was maintained

O=NN(CCCl)C(=O)NC1CCCCC1 [Lomustine]
sensitivity of cells to various concentrations of drug [4]: improves the sensitivity
sensitivity of cells to various concentrations of drug [5, 19]: improves the sensitivity
sensitivity of cells to various concentrations of drug [6, 19]: improves the sensitivity

Cn1nnc2c(C(N)=O)ncn2c1=O [Temozolomide]
percent increase in overall survival ([7]; after 1 year of TTFields exposure): 32%
percent increase in overall survival ([7]; after 5 years of TTFields exposure): 551%

COc1cccc2c1C(=O)c1c(O)c3c(c(O)c1C2=O)C[C@@](O)(C(=O)CO)C[C@@H]3O[C@H]1C[C@H](N)[C@H](O)[C@H](C)O1 [doxorubicin]
intracellular accumulation of doxorubicin [8]: increased
synergy of the combination with TTFields [9]: Evidence of synergy
sensitivity of cells to various concentrations of drug [9, 19]: improves the sensitivity
increase of intracellular accumulation of doxorubicin [10]: more than 2 X
intracellular accumulation of doxorubicin [11]: increased

Cc1c2oc3c(C)c(N)cc(C(=O)N[C@@H]4C(=O)N[C@H](C(C)C)C(=O)N5CCC[C@H]5C(=O)N(C)CC(=O)N(C)[C@@H](C(C)C)C(=O)O[C@@H]4C)c3nc-2c(C(=O)N[C@@H]2C(=O)N[C@H](C(C)C)C(=O)N3CCC[C@H]3C(=O)N(C)CC(=O)N(C)[C@@H](C(C)C)C(=O)O[C@@H]2C)c(N)c1=O [7-AAD, 7-Aminoactinomycin D]
percentage of cells with increased accumulation of 7-AAD ([12]; 150 kHz, 1.62 V/cm, 24 hours, 7-AAD added 15 minutes after fields were turned off): ~20%
percentage of cells with increased accumulation of 7-AAD ([12]; 150 kHz, 1.62 V/cm, 24 hours, 7-AAD added for the last 15 minutes of the field): ~66%
percentage of cells with increased accumulation of 7-AAD ([12]; control, same conditions, alternating electric fields not applied): less than 5%
percentage of cells with increased accumulation of 7-AAD [13]: significant increase in accumulation

CC1=C(CO)C(=O)O[C@@H]([C@@H](C)[C@H]2CC[C@H]3[C@@H]4C[C@H]5O[C@]56[C@@H](O)C=CC(=O)[C@]6(C)[C@H]4CC[C@]23C)C1 [Withaferin A]
synergy of the combination with TTFields [14]: synergy was found
synergy of the combination with TTFields [5]: synergy was found
synergy of the combination with TTFields [6]: synergy was found
Annexin-V-APC binding (positive control for apoptosis) [15]: could be visualized
growth of human glioblastoma cells [16]: synergistically inhibited the growth

firefly luciferase: purified firefly luciferase (SRE0045-2MG) purchased from Sigma Aldrich
loss in enzymatic activity [17]: > 1000 fold

CCc1c2c(nc3ccc(OC(=O)N4CCC(N5CCCCC5)CC4)cc13)-c1cc3c(c(=O)n1C2)COC(=O)[C@]3(O)CC [Irinotecan]
synergy of the combination with TTFields [14]: synergy was found
sensitivity of cells to various concentrations of drug [14, 19]: improves the sensitivity

Oc1ccc(Cc2nc3c(Cc4ccccc4)nc(-c4ccc(O)cc4)cn3c2O)cc1 [coelenterazine]
permeation of the substrates through the plasma membrane (greater bioluminescence) [18]: increased permeation
